# Experimental data from PMC7286788 (ACS infectious diseases, 2019).
# Where two headings read alike, the source gives them in different places. Marks after values point to notes of the source that are not given here. Starred links: 1 amine or outer side, 2 acyl side, 3 side chain; linkers in the order of their positions; H or OH if unused. Positions of bridges follow the written chain, without caps; N, C: chain ends. Non-standard residues stand in square brackets, D forms with d. Residues, ends and D or L forms follow the SMILES beside them. ξ: configuration not given here. *: point of attachment. X3 = O=C(C(N[*:1])c1ccc(OC2OC(CO)C(O)C(O)C2OC2OC(CO)C(O)C(O)C2O)cc1)[*:2]; ξPhg(3-Cl-4-OH) = NC(C(=O)O)c1ccc(O)c(Cl)c1; X2 = NC(=O)C(O[*:3])C(N[*:1])C(=O)[*:2]; Hpg = N[CH](C(=O)O)c1ccc(O)cc1; Orn = NCCC[CH](N)C(=O)O; X1 = CC(C)CC=CC=CC(=O)*
# T1: MurG (Mycolicibacterium smegmatis, UniProt A0R016)
# T1 sequence (A0R016 1-385): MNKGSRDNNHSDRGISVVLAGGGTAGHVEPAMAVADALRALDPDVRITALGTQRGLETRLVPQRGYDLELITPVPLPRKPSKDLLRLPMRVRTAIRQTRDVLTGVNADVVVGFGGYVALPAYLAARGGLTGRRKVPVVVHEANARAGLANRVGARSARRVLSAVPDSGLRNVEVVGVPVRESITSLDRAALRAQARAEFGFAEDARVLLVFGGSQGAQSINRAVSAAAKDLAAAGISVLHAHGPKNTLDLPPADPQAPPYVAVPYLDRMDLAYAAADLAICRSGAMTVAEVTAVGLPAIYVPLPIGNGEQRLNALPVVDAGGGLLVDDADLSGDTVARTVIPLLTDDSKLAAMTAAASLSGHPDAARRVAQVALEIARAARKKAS
# T2: MurG of M. smegmatis (Mycolicibacterium smegmatis, UniProt A0R016)
# T2 sequence (A0R016 1-385): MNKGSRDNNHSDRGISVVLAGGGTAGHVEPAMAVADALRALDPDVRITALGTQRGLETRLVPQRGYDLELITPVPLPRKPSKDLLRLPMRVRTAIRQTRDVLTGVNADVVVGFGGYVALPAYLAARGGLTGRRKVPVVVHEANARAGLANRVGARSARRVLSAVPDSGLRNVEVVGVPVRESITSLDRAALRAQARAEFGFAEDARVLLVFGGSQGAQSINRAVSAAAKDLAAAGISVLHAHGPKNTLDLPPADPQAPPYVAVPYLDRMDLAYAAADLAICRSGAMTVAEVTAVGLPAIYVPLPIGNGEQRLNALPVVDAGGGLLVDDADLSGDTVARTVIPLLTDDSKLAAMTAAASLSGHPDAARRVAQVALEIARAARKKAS
# Assays:
# HyMurG [1] = biological target: T3, HyMurG (Hydrogenivirga sp. 128-5-R1-1, UniProt A8US35); assay: UV-Vis-based MurG assay; assay type: biochemical; settings: for Inhibition of MurG function / lipid II formation: 50–100 μM; for inhibition at 10 µM / inhibition at 50 µM / inhibition at 100 µM: read-out: HthermMurG inhibition (%); for IC50: read-out: IC50 against HyMurG via UV-Vis spectrometry, dose-response curves
# T3 sequence (A8US35 1-350): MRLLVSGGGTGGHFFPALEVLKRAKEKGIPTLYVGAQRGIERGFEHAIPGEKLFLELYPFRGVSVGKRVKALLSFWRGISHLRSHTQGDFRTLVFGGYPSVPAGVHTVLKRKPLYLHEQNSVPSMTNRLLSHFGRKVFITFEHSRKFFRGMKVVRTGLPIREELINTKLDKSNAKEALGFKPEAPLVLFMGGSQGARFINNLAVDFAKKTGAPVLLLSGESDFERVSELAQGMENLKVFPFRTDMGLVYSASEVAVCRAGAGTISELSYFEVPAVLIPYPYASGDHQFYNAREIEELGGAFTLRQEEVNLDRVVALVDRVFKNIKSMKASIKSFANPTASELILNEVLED
# HyMurG [2] = biological target: T3, HyMurG; assay: HPLC-based MurG assay, dose-response, HyMurG; assay type: biochemical; settings: read-out: IC50 HyMurG; HPLC-based method; average of two-three experiments
# MsmegMurG [3] = biological target: T4, MsmegMurG (Mycolicibacterium smegmatis, UniProt A0R016); assay: biochemical; design: species or system Mycobacterium smegmatis
# MsmegMraY = MsmegMraY (Mycolicibacterium smegmatis, UniProt A0R019); assay: biochemical; assay type: biochemical, Mycobacterium smegmatis
# Sequence of MsmegMraY (A0R019 whole entry): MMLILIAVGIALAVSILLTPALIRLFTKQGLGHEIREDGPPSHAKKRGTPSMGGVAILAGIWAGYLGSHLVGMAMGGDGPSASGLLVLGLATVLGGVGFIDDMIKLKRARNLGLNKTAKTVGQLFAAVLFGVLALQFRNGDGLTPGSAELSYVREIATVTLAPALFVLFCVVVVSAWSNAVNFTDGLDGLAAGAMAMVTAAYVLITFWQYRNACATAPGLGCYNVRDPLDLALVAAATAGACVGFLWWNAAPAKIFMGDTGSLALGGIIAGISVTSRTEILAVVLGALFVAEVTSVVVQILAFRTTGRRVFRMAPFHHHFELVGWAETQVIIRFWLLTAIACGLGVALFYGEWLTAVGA
# MsmegMurG [4] = biological target: T4, MsmegMurG; assay: biochemical; design: species or system Mycobacterium smegmatis; settings: for inhibition at 10 µM / inhibition at 50 µM / inhibition at 100 µM: read-out: (MsmegMurG) inhibition (%)
# [5] = test system: M. smegmatis (ATCC607) and M. tuberculosis (H37Rv); assay: Antimycobacterial activity, text summary for both species; assay type: cell-based, Mycobacterium spp.; settings: 50 μg/mL
# MurG = biological target: T1, MurG; assay: MurG kinetic parameters and mode of inhibition, enzyme source not stated; assay type: biochemical
# in vitro = settings: African green monkey
# MurG of M. smegmatis = biological target: T2, MurG of M. smegmatis; assay: Kinetic studies of MurG of M. smegmatis; assay type: biochemical, Mycobacterium smegmatis; settings: P-60 of M. smegmatis; donor 8
# HyMurG [6] = biological target: T3, HyMurG; assay: Kinetic studies with HyMurG; assay type: biochemical; settings: HyMurG; donor 8
# [7] = Cytotoxicity against Vero cells; settings: African green monkey
# [8] = substrate: CC(=O)N[C@H]1[C@@H](OP(=O)(O)OP(=O)(O)OC[C@H]2O[C@@H](n3ccc(=O)[nH]c3=O)[C@H](O)[C@@H]2O)O[C@H](CO)[C@@H](O)[C@@H]1O; assay: Kinetic studies of MurG of M. smegmatis; assay type: biochemical, Mycobacterium smegmatis; settings: other: apparent Km
molecule,measurement,setting,value
"CO[C@H]1[C@@H](OC)[C@H](n2ccc(=O)[nH]c2=O)O[C@@H]1[C@@H](O[C@H]1OC(C(=O)N[C@H]2CCCCNC2=O)=C[C@H](O)[C@@H]1O)C(N)=O [O-Methylcapuramycin, O-methylcapuramycin]",Inhibition of MurG function / lipid II formation,HyMurG [1],did not inhibit
same,IC50,HyMurG [2],> 100 µM
same,IC50,"MsmegMurG [3]; read-out: IC50 MsmegMurG, HPLC-based method, average of two-three experiments",> 100 µM
same,IC50,"MsmegMraY; read-out: IC50 MsmegMraY, HPLC-based method, average of two-three experiments",> 100 µM
"C[C@@H]([C@H](N)C(=O)N[C@H](C(=O)O)[C@H]1O[C@@H](n2ccc(=O)[nH]c2=O)[C@H](O)[C@@H]1O)[C@H](O)c1ccc(O)cn1 [Nikkomycin Z, nikkomycin Z]",inhibition at 10 µM,HyMurG [1],33%
same,inhibition at 50 µM,HyMurG [1],50%
same,inhibition at 100 µM,HyMurG [1],95%
same,IC50,HyMurG [1],8.7 µM
same,IC50,MsmegMurG [4],9.5 µM
same,inhibition at 10 µM,MsmegMurG [4],35%
same,inhibition at 50 µM,MsmegMurG [4],45%
same,inhibition at 100 µM,MsmegMurG [4],93%
same,IC50,HyMurG [2],8.7 µM
same,IC50,MsmegMurG [3],9.5 µM
same,IC50,MsmegMraY,> 100 µM
same,Growth inhibition of M. smegmatis and M. tuberculosis,[5],did not inhibit growth
same,Mode of MurG inhibition,MurG,competitive inhibitory activity
same,IC50,in vitro,> 100 µg/mL
CC[C@@H](CO)NCCN[C@@H](CC)CO [Ethambutol],IC50,in vitro,> 100 µg/mL
C55-lipid II-N^ε-C6-dansyl-FITC [Compound 9-C55],Vmax for 9-C55 transformation,MurG of M. smegmatis,0.56 µM/min
same,Vmax for 9-C55 transformation,HyMurG [6],0.67 µM/min
"CC(C)CC=CC=CC(=O)NC(CC(N)=O)C(=O)NC1C(=O)NC(c2ccc(O)cc2)C(=O)NC(CCCN)C(=O)NC(C(C)O)C(=O)NC(c2ccc(O)cc2)C(=O)NC(c2ccc(O)cc2)C(=O)NC(C(C)O)C(=O)NC(Cc2ccccc2)C(=O)NC(CCCN)C(=O)NC(c2ccc(OC3OC(CO)C(O)C(O)C3OC3OC(CO)C(O)C(O)C3O)cc2)C(=O)NC(C(C)O)C(=O)NC(c2ccc(O)cc2)C(=O)NCC(=O)NC(CC(C)C)C(=O)NC(C)C(=O)NC(c2ccc(O)c(Cl)c2)C(=O)OC1C(N)=O (centres unmarked) [Ramoplanin A2, ramoplanin A2] (X1-N[X2][Hpg][Orn]T[Hpg][Hpg]TF[Orn][X3]T[Hpg]GLA[ξPhg(3-Cl-4-OH)]; ester 2-C; configuration not given here)",IC50,HyMurG [1],22.4 µM
same,inhibition at 10 µM,MsmegMurG [4],0%
same,inhibition at 50 µM,MsmegMurG [4],100%
same,inhibition at 100 µM,MsmegMurG [4],100%
same,IC50,HyMurG [2],22.4 µM
same,IC50,MsmegMraY,> 100 µM
same,IC50,[7],> 100 µg/mL
UDP-Glucosamine-C6-FITC [Compound 8],Km,"MurG; read-out: Km for UDP-GlcN-C6-FITC probe (8), 2e-C55 75 μM",54 µM
"CO[C@H]1[C@@H](O)[C@H](n2ccc(=O)[nH]c2=O)O[C@@H]1[C@@H](O[C@H]1OC(C(=O)N[C@H]2CCCCNC2=O)=C[C@H](O)[C@@H]1O)C(N)=O [Capuramycin, capuramycin]",Inhibition of MurG function / lipid II formation,HyMurG [1],did not inhibit
same,inhibition at 10 µM,HyMurG [1],0%
same,inhibition at 50 µM,HyMurG [1],0%
same,inhibition at 100 µM,HyMurG [1],0%
same,inhibition at 10 µM,MsmegMurG [4],0%
same,inhibition at 50 µM,MsmegMurG [4],0%
same,inhibition at 100 µM,MsmegMurG [4],0%
same,IC50,MsmegMurG [3],> 100 µM
same,IC50,MsmegMraY,0.13 µM
"CN[C@H](CC(C)C)C(=O)N[C@H]1C(=O)N[C@@H](CC(N)=O)C(=O)N[C@H]2C(=O)N[C@H]3C(=O)N[C@H](C(=O)N[C@H](C(=O)O)c4cc(O)cc(O)c4-c4cc3ccc4O)[C@H](O)c3ccc(c(Cl)c3)Oc3cc2cc(c3O[C@@H]2O[C@H](CO)[C@@H](O)[C@H](O)[C@H]2O[C@H]2C[C@](C)(N)[C@H](O)[C@H](C)O2)Oc2ccc(cc2Cl)[C@H]1O [Vancomycin, vancomycin]",inhibition at 10 µM,MsmegMurG [4],60%
same,inhibition at 50 µM,MsmegMurG [4],67%
same,inhibition at 100 µM,MsmegMurG [4],58%
same,IC50,[7],> 100 µg/mL
MurG of M. smegmatis (Mycolicibacterium smegmatis MC2 155) (protein) MNKGSRDNNHSDRGISVVLAGGGTAGHVEPAMAVADALRALDPDVRITALGTQRGLETRLVPQRGYDLELITPVPLPRKPSKDLLRLPMRVRTAIRQTRDVLTGVNADVVVGFGGYVALPAYLAARGGLTGRRKVPVVVHEANARAGLANRVGARSARRVLSAVPDSGLRNVEVVGVPVRESITSLDRAALRAQARAEFGFAEDARVLLVFGGSQGAQSINRAVSAAAKDLAAAGISVLHAHGPKNTLDLPPADPQAPPYVAVPYLDRMDLAYAAADLAICRSGAMTVAEVTAVGLPAIYVPLPIGNGEQRLNALPVVDAGGGLLVDDADLSGDTVARTVIPLLTDDSKLAAMTAAASLSGHPDAARRVAQVALEIARAARKKAS,Km,[8]; 2e-C55 37.5 μM,36 ± 10^b μM
same,Km,[8]; 2e-C55 75.0 μM,37 ± 3.0 µM
